Experimental findings from patent EP4729518A1, “CRYSTAL FORM OF METHIONINE ADENOSYLTRANSFERASE 2A HETEROCYCLIC INHIBITOR, PREPARATION METHOD THEREFOR, AND USE THEREOF” (Nanjing Chia Tai Tianqing Pharmaceutical Co., Ltd., priority 2023, dated 2024) are described below.

In one data set the target is T1, MAT2A enzyme (Homo sapiens, UniProt P31153).
T1 construct: purchased BPS 71401
Kind of data set: MAT2A enzymatic assay (Biomol Green, OD620). In kind it is biochemical. On the procedure: • a) First, a 5× MAT2A assay buffer (250 mM Tris-HCl, pH 8.0; 250 mM KCl; 75 mM MgCl2; 0.025% BSA; 0.05% Brij35; 1.5 mM EDTA) was prepared and partially diluted to 1× for later use. • b) Preparation and addition of MAT2A enzyme (BPS, 71401): The MAT2A enzyme was diluted to 3.674 ng/µL (1.67×, final concentration: 2.20 ng/µL) with the 1× MAT2A assay buffer. Using a BioTek (MultiFlo FX) automated dispenser, the 1.67× MAT2A enzyme solution was added to the compound test wells and negative control wells of a plate at 15 µL/well, and meanwhile, the 1× MAT2A assay buffer was added to the blank control wells at 15 µL/well. • c) Preparation and addition of compounds: The test compound was diluted from a 10 mM stock solution to 100 µM with DMSO, and the positive control drug AGI-24512 was diluted under the same conditions. Using a Tecan compound dispenser (D300e), the dilutions were automatically dispensed into each well according to a preset concentration gradient. The dispensed volume was minimal and considered negligible. The concentration gradient started at 1 µM (1/2 log dilution), and a total of 8 gradient points were set. The plate was centrifuged at 2500 rpm for 30 s and incubated at 25 °C for 30 min. • d) Preparation of ATP: 10 mM ATP (Sigma, A7699) was diluted to 700 µM with the 1× MAT2A assay buffer for later use. • e) Preparation and addition of mixed solution of substrate and ATP: A mixed solution was prepared containing the 5× MAT2A assay buffer (3 µL/well), 750 µM L-methionine (Adamas, 01100469) (2.5 µL/well), 700 µM ATP (2.5 µL/well), and double distilled water (2 µL/well). The total amount of the required mixed solution was prepared according to the number of detection wells. Using a BioTek (MultiFlo FX) automated dispenser, the mixed solution was added at 10 µL/well. The resulting mixture was centrifuged at 2500 rpm for 30 s and allowed to react at 25 °C for 150 min. • f) Addition of Biomol Green detection reagent: Using a BioTek (MultiFlo FX) automated dispenser, Biomol Green (Enzo, BML-AK111) was added at 50 µL/well. The plate was centrifuged at 2500 rpm for 30 s and incubated at 25 °C for 20 min. • g) After the reaction was completed, the OD620 values were measured using a Perkin Elmer (Envision 2105) multimode microplate reader.
The inhibition rate was calculated using the following formula: Inhibition rate % = (ODmax −ODsample)/(ODmax −ODmin) × 100% [formula] where: • ODsample represents the OD620 value of the sample well; • ODmin represents the mean OD620 value of the blank control wells containing no enzyme and no test compound; • ODmax represents the mean OD620 value of the negative control wells containing enzyme but no compound. […]

Data set [1] can be described thus: In vivo pharmacokinetic study in ICR mice. Conditions: mouse, PO @ 10 mg/kg, male ICR mice, plasma; for AUC(0-t): read-out: Area under the curve AUC0-t; for Cmax: read-out: Peak concentration Cmax. On the procedure:
Male ICR mice (6-10 weeks old, Vital River Laboratory Animal Technology Co., Ltd.) were housed in an SPF animal room at a temperature of 20-25 °C, with a relative humidity of 40%-70%, and under a 12/12-hour light/dark cycle. The animals were given free access to water and food. After at least 5 days of normal feeding, mice with good physical signs as determined by a veterinarian could be included in this experiment. Each mouse was marked with a number on the tail.
The day before the experiment, the mice were fasted overnight, with free access to water. They were fed 4 h after administration. The compound was prepared into a 20 mg/mL stock solution with DMSO. An appropriate volume of the 20 mg/mL stock solution was accurately pipetted into a glass flask, and then an appropriate volume of PEG400 was added. The mixture was mixed well, and then propylene glycol (PG) was added. The ratio of vehicles in the final formulation was DMSO:PEG400:PG (v/v/v) = 5:65:30. This process yielded a test dosing solution of each test compound at a concentration of 1 mg/mL.
The mice were weighed, and then the theoretical administration volume for each mouse was calculated according to the following formula. The actual administered dose for each mouse and the time of blood sample collection should be recorded in detail in the corresponding table. Theoretical administration volume(mL); = ((Dose(mg⋅kg^−1))/(Concentration of test solution(mg⋅mL^−1))) × Animal body weight(kg) [formula]
On the day of the experiment, the test dosing solution of each test compound was intragastrically administered to the mice in each group at a dose of 10 mg/kg. At each time point after administration, about 40 µL of blood was collected from the orbit of each mouse and then placed into an EDTA-K2 anticoagulation tube. The whole blood samples were centrifuged at 1500-1600 g for 10 min. The separated plasma was stored in a freezer at -40 °C to -20 °C for biological sample analysis.
The concentrations of the compounds in the biological samples obtained from the experiment were determined using an LC-MS/MS analysis method. Pharmacokinetic parameters were calculated using a non-compartmental model in Pharsight Phoenix 7.0.

Another data set deals with HCT116 MTAP-/- cells. Kind of data set: Cellular assay: cell proliferation inhibition (CellTiter-Glo). In kind it is cell-based. Conditions: Homo sapiens, HCT-116; incubated for 120 h. As to the method: HCT116 MTAP-/- cells (purchased from Horizon Discovery) (a human colorectal cancer cell strain with deletion of MTAP gene) were cultured in a medium containing RPMI 1640 + 10% FBS (fetal bovine serum). On day 0 of the experiment, the viable cell density of the aforementioned cells in the logarithmic growth phase was adjusted to 5000 cells/mL, and then the cells were seeded into a 96-well plate at 100 µL/well, with blank group wells set up in parallel. The seeded cell plate was placed in an incubator at 37 °C with 5% CO2 and incubated overnight.
On day 1 of the experiment, the cell plate incubated overnight was taken out, and the supernatant was discarded. A serum-free RPMI 1640 medium was then added at 80 µL/well, and the plate was placed in an incubator for starvation culture for 4 h. The test compound was dissolved in DMSO (dimethyl sulfoxide) to prepare a 10 mM compound stock solution. After the starvation was completed, the cell plate was taken out, and a medium containing RPMI 1640 + 20% FBS was further added at 80 µL/well. The cell plate was placed on an automated dispenser D300e (Tecan), with the program for compound addition set as follows: the highest concentration of the compound tested was 30 µM, and 3-fold gradient dilution was performed with DMSO to give a total of 10 concentrations; two replicate wells were set for each concentration; the final concentration of DMSO in each well of the 96-well plate was 0.3% (v/v). The pre-prepared 10 mM test compound stock solution was taken and then added by running the aforementioned drug addition program. After the drug addition was completed, the cell plate was placed in an incubator and incubated for 120 h.
On day 6 of the experiment, the cell plate was taken out, and CellTiter-Glo® (purchased from Promega) was added at 50 µL/well. The […] was measured on Envision (PerkinElmer) according to the operation procedures in the instructions. […]

Data set [2] in a line: Long-term stability study (XRD and HPLC). In kind it is physicochemical. Conditions: 40±2 °C/75%±5% RH. On the procedure: A sample of the crystal form L was placed under the conditions of 40±2 °C/75%±5% RH, and the physicochemical stability of the sample was tested using XRD and HPLC.
Data set [3] can be described thus: Suspension stirring competition among anhydrous crystal forms (XRD). In kind it is physicochemical. Conditions: different solvents and temperatures (room temperature/50 °C). On the procedure: The interconversion relationships among the various anhydrous crystal forms were investigated using a suspension stirring competition method in different solvent systems at different temperatures. 1) Equal masses (3-4 mg) of the various anhydrous crystal forms (crystal forms A/B/C/G/H/L/M) were separately weighed and added to HPLC vials. To each vial, 1.0 mL of the corresponding solvent that had been pre-saturated with the crystal form G at the corresponding temperature was added. The resulting suspensions were magnetically stirred (1000 rpm) at room temperature or 50 °C. Samples were taken at 10 min, 3 d, and 7 d, and then centrifuged to collect the solids, which were then subjected to XRD analysis. Table 25: Summary of results of suspension stirring competition test among various anhydrous crystal forms
2) Equal masses (about 5 mg) of the various anhydrous crystal forms (crystal forms B/H/L) were separately weighed and added to HPLC vials. To each vial, 1.0 mL of a solvent that had been pre-saturated with the crystal form G at the corresponding temperature was added. The resulting suspensions were magnetically stirred (1000 rpm) at room temperature or 50 °C. Samples were taken at 10 min, 6 h, 1 d, 4 d, and 7 d, and then centrifuged to collect the solids, which were then subjected to XRD analysis. […]

A short description of data set [4]: Heating experiment via DSC followed by XRD. In kind it is physicochemical. Conditions: Heating temperature 250 °C. The source says:
The heated samples were then collected and subjected to XRD analysis. Table 27: Summary of heating test results for various crystal forms

Data set [5] in a line: Solid state stability of crystal forms (XRD and HPLC). The class given is physicochemical. On the procedure:
Samples of the crystal forms B, H, and L were placed under the conditions of 25 °C/60% RH and 40 °C/75% RH for 17 days, and then the physicochemical stability of the samples was tested using XRD and HPLC. Table 24: Summary of solid state stability evaluation of crystal forms

Structures are written as SMILES.

T1 sequence (P31153 whole entry): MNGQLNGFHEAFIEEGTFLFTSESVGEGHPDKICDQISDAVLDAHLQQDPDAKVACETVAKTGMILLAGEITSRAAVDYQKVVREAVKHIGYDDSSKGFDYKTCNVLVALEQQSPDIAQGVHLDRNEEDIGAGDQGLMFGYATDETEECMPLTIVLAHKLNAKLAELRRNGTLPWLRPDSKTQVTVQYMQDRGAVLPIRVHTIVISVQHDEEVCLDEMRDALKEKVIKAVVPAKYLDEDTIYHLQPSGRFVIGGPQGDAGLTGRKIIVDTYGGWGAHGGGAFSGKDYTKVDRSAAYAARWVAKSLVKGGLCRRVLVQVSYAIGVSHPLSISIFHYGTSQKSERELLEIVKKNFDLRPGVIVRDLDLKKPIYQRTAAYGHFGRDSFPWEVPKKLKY

The compound `Cc1[nH]c2c(N3CCCCC3)c(-c3ccccc3)nn2c(=O)c1-c1ccc(O)cc1` [AGI-24512, reference compound] showed an IC50 at MAT2A enzyme of 26.8 nM.
In the case of `O=c1c(-c2ccc(OC(F)F)cc2)nn2ccc(C3CC3)nc2c1-c1ccc(OC(F)F)cc1` [Example 1, 2-Cyclopropyl-7,9-bis[4-(difluoromethoxy)phenyl]-8H-pyrimido[1,2-b]pyridazin-8-one], the AUC(0-t) in data set [1] was 45500 ng·h/mL. In data set [1], the Cmax was 2070 ng/mL. Besides, the IC50 against MAT2A enzyme came out at 6.44 nM; in the data set with HCT116 MTAP-/- cells, 260 nM.
For `Cn1cc2cc(-c3nn4ccc(C5CC5)nc4c(-c4ccc(OC(F)F)cc4)c3=O)ccc2n1` [Crystal form L, 2-cyclopropyl-9-[4-(difluoromethoxy)phenyl]-7-(2-methyl-2H-indazol-5-yl)-8H-pyrimido[1,2-b]pyridazin-8-one], the Crystal form change entry in data set [2] (0 days), in data set [2] (1 month), in data set [2] (2 months), in data set [2] (3 months), in data set [2] (6 months) and in data set [5] (0 day) was “No” throughout. The Crystal form change entry in data set [5] (25 °C/60% RH/17 days) and in data set [5] (40 °C/75% RH/17 days) was “No” throughout. Besides, the Water content entry in data set [2] (0 days), in data set [2] (1 month) and in data set [2] (6 months) was “Undetectable” each time. Moreover, the “Related substance Total impurities” value in data set [2] (1 month) is 0.22%; in data set [2] (2 months) it was 0.26%; in data set [2] (3 months), 0.26%; in data set [2] (6 months) it was 0.27%. In addition, the “stability in suspension stirring competition” value in data set [3] is “stable crystal form”. Moreover, the “After heating (crystal form)” value in data set [4] is given as “Crystal form A”. The Purity was determined as 98.60% in data set [5] (0 day), 99.04% in data set [5] (25 °C/60% RH/17 days) and 99.00% in data set [5] (40 °C/75% RH/17 days). For the same compound, the “change in crystal form or purity” value in data set [5] (25 °C/60% RH for 17 days) and in data set [5] (40 °C/75% RH for 17 days) was “no change in either crystal form or purity” each time.
Turning to `Cn1cc2cc(-c3nn4ccc(C5CC5)nc4c(-c4ccc(OC(F)F)cc4)c3=O)ccc2n1` [Example 3, 2-Cyclopropyl-9-[4-(difluoromethoxy)phenyl]-7-(2-methyl-2H-indazol-5-yl)-8H-pyrimido[1,2-b]pyridazin-8-one], the AUC(0-t) in data set [1] came out at 78300 ng·h/mL. Also, the Cmax in data set [1] is 4210 ng/mL. Besides, the results for the IC50 against MAT2A enzyme and in the data set with HCT116 MTAP-/- cells were 10.7 nM and 14.3 nM, respectively.
The corresponding values for `O=c1c(-c2ccc3c(c2)OCO3)nn2ccc(C3CC3)nc2c1-c1ccc2c(c1)OCO2` [Example 2, 7,9-Bis(benzo[d][1,3]dioxol-5-yl)-2-cyclopropyl-8H-pyrimido[1,2-b]pyridazin-8-one] are 8730 ng·h/mL, 1370 ng/mL, 11.4 nM and 119 nM.
